Drawing on a melting point compilation (Tetko et al.; mined from patent text by program, amines drawn as free bases though some values may be those of a salt), this text covers melting point for 87 compounds.

Structures are written as SMILES. Where only a bound is given, the exact number is not on record here.

Broadly, the melting point is the temperature, or range, at which the solid turns liquid.

As to `O=C(O)COc1c(Br)cc(-c2ccc(-c3c(Cc4ccccc4)sc4ccccc34)cc2)cc1Br`, the melting point was 183 to 185 °C.

`CCOc1ccc(Cl)c([N+](=O)[O-])c1` had a melting point of 48 to 49.5 °C.

Compound `CN(C)CCCOc1ccc(C(=O)c2c(-c3ccccc3)oc3ccccc23)cc1` gave a melting point of 85 to 95 °C.

For the compound `CC(=O)c1ccc(OCCCN2CCC(c3noc4cc(F)ccc34)CC2)cc1`, the melting point was in the range of 111 to 112 °C.

In the case of `Clc1ccc(N2CCN(Cc3n[nH]c4c(Cl)cccc34)CC2)nc1`, the melting point is 150 to 152 °C.

Turning to `O=C(Nc1ccc2oc(=O)[nH]c2c1)C(=O)N1CCC(Cc2ccccc2)CC1`, the melting point lay within 187 to 190 °C.

The compound `CC(C)(C)N1CC2(CCNCC2)OC1=O` came in with a melting point of 108 to 111 °C.

Regarding `CC(C)CCn1c(=O)c2c(Cl)cc(Cl)cc2n(Cc2ccccc2)c1=O`, the melting point lay within 89 to 92 °C.

As to `O=C(O)c1cc2cc(OCCc3ccccc3)ccc2[nH]1`, the melting point lay in the range of 184 to 187 °C.

As to `Fc1ccc(F)c(C(Sc2ccc(Cl)cc2)c2ccc(CSc3ccc(Cl)cc3)cn2)c1` (configuration not stated), the melting point was 87 to 88 °C.

`CCCc1c(OCc2ccc(C(=O)OCC)c(OCC)c2)ccc(C(C)=O)c1O` displayed a melting point of 92 to 94 °C.

`O=C(c1ccccc1)c1cnc2c(-c3cc(-c4ccccc4)cs3)cnn2c1O` came in with a melting point of 277 to 290 °C.

For `Oc1nc(-c2ncccn2)nc(O)c1-c1cccs1`, the melting point lay within 244 to 246 °C.

Consider `CC1SC(C(=O)Nc2ccc(CN3CCOC3=O)cc2)Cc2cc3c(cc2C1=O)OCO3` (configuration not stated), for which the melting point was 231 to 233 °C.

In the case of `CCOC(=O)COc1ccc(C(=O)c2ccccc2O)c(Cl)c1Cl`, the melting point was in the range of 108 to 110 °C.

Regarding `CC(C)N1CC(=O)N(C(C)C)CC1=O`, the melting point fell in the range of 177 to 180 °C.

The compound `COC(=O)[C@H]1N[C@@H](c2cccnc2)[C@@H]([N+](=O)[O-])[C@@H]1[C@@H](OCc1ccccc1)C(C)C` came in with a melting point of 70 to 71 °C.

The compound `CCN(C/C=C/C#CC(C)(C)C)Cc1cccc(N2C(=O)c3ccccc3C2=O)c1` had a melting point of 65 to 66 °C.

On to `CCOC(=O)c1cn(C)nc1C(F)F`, for which the melting point lay in the range of 43 to 46 °C.

`CC(C)C1COCc2nc3c(N)nc4ccccc4c3n21` (configuration not stated) yielded a melting point of 249 to 250 °C.

`COc1ccc(S(=O)(=O)N2C(=O)C(N)(c3ccccc3Cl)c3cc(Cl)ccc32)c(N)c1` (configuration not stated) registered a melting point of 160 to 166 °C.

Turning to `Cc1nc2c(CCc3ccccc3)cccn2c1CC#N`, the melting point lay within 120 to 123 °C.

Compound `COC(=O)c1ccc(Cn2c(C(=O)NC(N)=S)cc3cc(C)cc(C)c32)cc1` displayed a melting point of 222 to 224 °C.

`Cc1ccn(-c2ccc(S(C)(=O)=O)cc2)c1-c1ccc(Cl)cc1`: the melting point fell in the range of 173 to 174 °C.

`Cc1c2c(nc3ccccc13)CCN(C(=O)C(C)C)CC2` registered a melting point of 107 °C.

As to `O=C(CCN1CCCC1)Nc1cc(-c2nnc(SCc3cccc(F)c3)o2)ccn1`, the melting point lay in the range of 114 to 115 °C.

For the compound `CCOC(=O)C(=CNc1ccc(F)c(F)c1OCc1ccccc1)C(=O)OCC`, the melting point worked out at 87 °C.

Consider `CC(C)n1nc(-c2c(-c3ccccc3)nn3ccc(N4CCN(C(=O)c5ccccc5)CC4)cc23)ccc1=O`, for which the melting point was in the range of 124 to 126 °C.

In turn, `OC1CSC(Oc2ccccc2-c2cccnc2)C(O)C1O` (configuration not stated) gave a melting point of 195 °C.

For the compound `CC(C)(C)OC(=O)N[C@H](CO)Cc1ccc(-c2ccccc2)cc1`, the melting point worked out at 116 °C.

As to `CN1C(=O)N(c2c(Cl)cccc2Cl)Cc2cnc(NCc3ccccc3)nc21`, the melting point was in the range of 195 to 198 °C.

On to `Cc1cc(C)c(Nc2nc(C)ccc2S(=O)(=O)c2ccc(OCc3ccccc3[N+](=O)[O-])cc2)c(C)c1`, for which the melting point was in the range of 153 to 155 °C.

In turn, `CCOC(=O)C1=C(C)NC(c2cnc(NC(C)=O)s2)=NC1c1ccc(F)cc1Cl` (configuration not stated) yielded a melting point greater than 250 °C.

Turning to `CCCCCS(=O)(=O)NC/C=C/c1ccc(OCCOC)cc1Oc1ncc(C(F)(F)F)cc1Cl`, the melting point was determined as 106 °C.

`O=C(O)c1ccc(NC(=O)c2sc3c([N+](=O)[O-])c(O)c(O)cc3c2Cl)cc1` displayed a melting point of 298 to 300 °C.

As for `O=C1CCCc2cc(Sc3cccc(F)c3)cc(F)c21`, the melting point lay in the range of 126 to 127 °C.

`Cc1c(O[Si](C)(C)C(C)(C)C)cc(O[Si](C)(C)C(C)(C)C)cc1C(=O)O[Si](C)(C)C(C)(C)C` yielded a melting point of 64 °C.

`O=C(CC(=O)c1ccc(C(F)(F)F)cc1[N+](=O)[O-])c1ccccc1` had a melting point of 101 to 103 °C.

`CC/C=C/Cn1c(Sc2cc(C)cc(C)c2)c(CC)c(=O)[nH]c1=O` came in with a melting point of 129 to 130 °C.

The compound `COC(=O)c1cc2cc(OC)c(OCCCl)cc2nc1N=CN(C)C` showed a melting point of 108 to 110 °C.

`CC(C)(C)OC(=O)N1CCN(c2ccc(S(=O)(=O)c3ccccc3)c(N)c2)CC1` displayed a melting point of 135 to 137 °C.

`NC(=O)N1c2ccccc2CC(=NNc2ccccc2)c2ccccc21` returned a melting point of 220 to 221 °C.

With `CCC(=O)OCCN1CCc2cc(Nc3ncc(Cl)c(Nc4ccccc4S(=O)(=O)N(C)C)n3)c(OC)cc2CC1`, the melting point was found to be 40 °C.

Take `CN1c2ccccc2C(=O)c2ccccc2C12OCCO2`: the melting point was in the range of 192 to 193 °C.

The compound `COCCOc1cc2c(Nc3ccc(Sc4nccn4C)c(Cl)c3)c(C#N)cnc2cc1N1CCC(N2CCCC2)CC1` gave a melting point of 238 to 241 °C.

`O=C(NCCCl)NCc1cccnc1` gave a melting point of 95 °C.

Take `CS(=O)(=O)c1ccc(-c2cc(C(=O)c3ccccc3)sc2N2CCOCC2)cc1`: the melting point is 173 °C.

Regarding `COc1ccc(CN2CCC(c3cn(Cc4ccoc4)c4cc(F)ccc34)CC2)cc1C(=O)O`, the melting point was 228 to 229 °C.

Compound `FC(F)(F)c1ccc2c(c1)ncn2-c1cccc(I)c1` gave a melting point of 86 to 87 °C.

`C#CCOCC(C)(COCC#C)NC(=O)C(Oc1ccc2ncc(C#C)cc2c1)SC` (configuration not stated): the melting point is 95 to 100 °C.

As to `N#Cc1cccc(-c2ccccc2)n1`, the melting point lay in the range of 65.2 to 66.1 °C.

As for `O=c1[nH]c2ccc(C(F)(F)F)cc2[nH]c1=O`, the melting point was found to be 330 °C.

On to `C=CCC(C#N)(C#N)Cc1ccc(C)cc1`, for which the melting point is 74.5 °C.

`COc1cccc2c1OC(CN1CCC(CNC(=O)c3cccnc3N)CC1)CO2` (configuration not stated) had a melting point of 57 to 60 °C.

For `O=c1ccn(C(OC2CCCCO2)c2ccccn2)cc1` (configuration not stated), the melting point lay within 173 to 176 °C.

Compound `O=C(NCCCCCC1CCSS1)c1ccccc1` (configuration not stated) gave a melting point of 58 to 59 °C.

`CC(C)C(=O)N[C@@H](CS)C(=O)NCCSC(=O)c1ccccc1` displayed a melting point of 127 to 130 °C.

In turn, `CCn1ncc(C(=O)c2ccc(S(C)(=O)=O)c(C)c2Cl)c1O` yielded a melting point of 225 to 227 °C.

`CC1NC(=O)NN=C1c1ccc(N)cc1` (configuration not stated) displayed a melting point of 248 to 250 °C.

For the compound `Cc1cc(-c2cnn3c(C(F)(F)F)cc(-c4cccc(C(F)(F)F)c4)nc23)cc(C)n1`, the melting point was determined as 236 °C.

`CCCc1cc(OCC)c2c(c1OC)S(=O)(=O)N(CSc1nnnn1-c1ccccc1)C2=O` came in with a melting point of 110 to 111 °C.

Regarding `O=C(O)c1cccc(NC(=O)C(CS)CCCc2ccccc2)c1` (configuration not stated), the melting point is 134 to 136 °C.

Consider `O=[N+]([O-])c1cc(F)ccc1OCCCCl`, for which the melting point worked out at 143 °C.

Consider `CN(Cc1cc(C(F)(F)F)cc(C(F)(F)F)c1)C(=O)c1c(Cl)nc2ccccc2c1-c1ccccc1`, for which the melting point is 147 to 148 °C.

The compound `OCc1nc(Cl)cc(N2CCCC2)n1` yielded a melting point of 90 to 93 °C.

In the case of `COc1ccc2c(c1)c(Cc1cc(=O)n(-c3cccc(NC(C)=O)c3)[nH]1)c(C)n2C(=O)c1ccc(Cl)cc1`, the melting point lay within 124 to 126 °C.

In turn, `CC12CCC(O)CC1=CCC1C2CCC2(C)C(c3cncnc3)=CCC12` (configuration not stated) had a melting point of 231 to 233 °C.

The compound `CCCCCCCCCC(CCCCCCCCC)N1C(=O)c2ccc3c4cccc5cccc(c6ccc(c2c36)C1=O)c54` yielded a melting point of 143 to 144 °C.

The compound `CC(C)(O)c1cccc(-c2ccc3nc(-c4ccc(Cl)cc4)c(Cl)n3c2)c1` returned a melting point of 172 to 173 °C.

`FC(F)(F)Oc1ccc2[nH]c(-c3cccnc3)nc2c1` showed a melting point of 197 to 199 °C.

`COc1ccc(-c2cc(N)c(Cl)c(C(=O)O)n2)cc1` gave a melting point of 192 °C.

`Clc1cc(N2CCNCC2)nc(N2CCCC2)n1` returned a melting point of 89 to 100 °C.

The compound `CC(=O)C(O)C1OC(n2cc(F)c(=O)[nH]c2=O)CC1(O)C(C)=O` (configuration not stated) came in with a melting point of 148 to 149 °C.

Take `CCCCCCC(=N)NC(=S)Nc1ccc(C)cc1Cl`: the melting point lay in the range of 78 to 80 °C.

Regarding `CCCC(=O)N(Cc1ccc(-c2ccccc2-c2nc(=O)o[nH]2)cc1)c1sc(C)cc1C(=O)OC`, the melting point was 156 to 157 °C.

`CC1(C2CCCC2)Cc2cc(OS(=O)(=O)C(F)(F)F)c(Cl)c(Cl)c2C1=O` (single isomer, unassigned; (+)) displayed a melting point of 104 to 106 °C.

Consider `N#Cc1ccc(C=O)c(N2CCCC2)c1`, for which the melting point came out at 121 °C.

Consider `CCCCOc1ccc(S(=O)(=O)C2(C(=O)NO)CCN(CCCOc3ccccc3)CC2)cc1`, for which the melting point amounted to 84 °C.

Take `Nc1[nH]c(=O)[nH]c(=O)c1N`: the melting point lay in the range of 144 to 146 °C.

Compound `CC(C)(c1cc(F)ccc1O)c1cc(F)ccc1O` returned a melting point of 155 °C.

`Cc1ccc2oc(-c3ccccc3[N+](=O)[O-])cc2c1` displayed a melting point of 83 °C.

Consider `C[C@H](CN1CC=C(c2cccs2)CC1)Nc1ccccn1`, for which the melting point lay in the range of 63 to 68 °C.

In turn, `Nc1cc(F)c(N2CCOCC2)cc1Cl` registered a melting point of 89.5 °C.

Take `CC(=O)OC(OC(C)=O)c1cccc(C(OC(C)=O)OC(C)=O)c1`: the melting point lay within 110 to 130 °C.

Compound `O=C(NC1CCCCC1)NS(=O)(=O)c1ccc(CCNC(=O)N2CC3CCCCC3C2=O)cc1` (configuration not stated) returned a melting point of 139 to 140 °C.

With `CC/C(=N\OCCCOc1ccc(C(=O)O)c(NC(=O)c2ccc(C(F)(F)F)cc2)c1)c1ccc(C(C)(C)C)cc1`, the melting point lay within 149 to 151 °C.

`CCOCC(COCC)Oc1ccc(/C=C/C(=O)OCC)c(Oc2ncc(C(F)(F)F)cc2Cl)c1` displayed a melting point of 66 to 67.5 °C.
